From patent US10344026B2, “Compositions and methods of targeting mutant K-ras” (NANTBIO, INC., priority 2017, dated 2019)
Like-named read-outs stand apart in the source and are kept apart here.

Legend:
Type in all cases: cell-based
Panc10.05-G12D = test: Viability assay (CellTiterBlue, 72 hr) Panc10.05; conditions: Homo sapiens, Panc1005, GI50, CellTiterBlue, read-out: 72 hr Cell Viability Panc10.05 (G12D)
Protocol: (§1) Viability assays were performed on exemplary compounds and Table 2 below lists exemplary results for selected compounds tested on K-Ras wild type cell lines (Ishikawa, U87-MG, HCC827, and A375) and various K-Ras mutant cell lines (Panc1-G12D; Panc10.05-G12D; HCT116-G31D). Results are expressed in μM and corresponding structures are shown in FIGS. 2A-2G and Examples 1-152, above.
(§2) Cells are counted and seeded at 1000 cells/36 ul medium/well into 384-well microplates. Cells are returned to 37° C. CO2 incubator for 18 hr. Drug is made as 200× in DMSO and diluted into medium to 10×. To each well is added 4 ul 10× drug, and plates are returned to the incubator. Final assay DMSO concentration is 0.5%. After 72 hr, 8 ul CellTiterBlue (Promega) is added to each well. After 3 hr, fluorescence (Ex550/Em590) is determined on the Victor Plate Reader (Perkin Elmer). Assay range is determined by DMSO control (100% viability) and 100 uM tamoxifen (0% viability). GI50 values are calculated using Graphpad Prism.

Panc1-G12D = test: Viability assay (CellTiterBlue, 72 hr) Panc1; conditions: Homo sapiens, PANC-1, GI50, CellTiterBlue, read-out: 72 hr Cell Viability Panc1 (G12D)
Protocol: as §1, §2

HCT116-G31D = test: Viability assay (CellTiterBlue, 72 hr) HCT116; conditions: Homo sapiens, HCT-116, GI50, CellTiterBlue, read-out: 72 hr Cell Viability HCT116 (G13D)
Protocol: as §1, §2

[1] = test system: HCC827 (K-Ras wild type cell line); test: Viability assay (CellTiterBlue, 72 hr) HCC827; conditions: Homo sapiens, GI50, CellTiterBlue
Protocol: as §1, §2

[2] = test system: U87-MG (K-Ras wild type cell line); test: Viability assay (CellTiterBlue, 72 hr) U87-MG; conditions: Homo sapiens, U-87 MG, GI50, CellTiterBlue
Protocol: as §1, §2

K-Ras G12D = biological target: T1, K-Ras G12D (Homo sapiens, UniProt P01116, G12D); test: G-LISA Ras activation, 293H cells transfected with G12D mutant; conditions: compound 1 hour
T1 construct: expressed in transfected cells; host or cells: 293H cells
T1 sequence (P01116 whole entry G12D): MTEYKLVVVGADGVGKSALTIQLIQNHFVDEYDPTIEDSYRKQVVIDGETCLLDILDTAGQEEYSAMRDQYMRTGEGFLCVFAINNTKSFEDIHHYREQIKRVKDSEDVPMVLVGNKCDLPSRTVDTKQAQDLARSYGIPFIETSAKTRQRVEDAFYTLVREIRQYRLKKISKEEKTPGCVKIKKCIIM
Protocol: 293H cells were seeded in 6-wells at 0.6×10^6 cells per well and transfected next day with 5 μg of Ras wild-type, or G12C, G12D or G12V mutant DNA plasmid vector using transfection reagent Lipofectamine 3000. Next day cells were treated with 3.125-25 μM of Ras compounds for 1 hour. Wild-type transfected cells were subsequently treated with 100 ng/ml EGF for 2 minutes. Cells were washed once in ice-cold PBS, lysed in complete lysis buffer on ice, and processed by G-LISA according to Cytoskeleton protocol.

[3] = test system: Ishikawa (K-Ras wild type cell line); test: Viability assay (CellTiterBlue, 72 hr) Ishikawa; conditions: Homo sapiens, GI50, CellTiterBlue
Protocol: as §1, §2

[4] = Ishikawa cells (K-Ras wild-type)

IC50 (Panc10.05-G12D; Panc10.05 cells (K-Ras G12D)) | IC50 (Panc1-G12D; Panc1 cells (K-Ras G12D)) | IC50 (HCT116-G31D; HCT116 cells (K-Ras G13D)) | IC50 ([1]; HCC827 cells (K-Ras wild-type)) | IC50 ([2]; U87-MG cells (K-Ras wild-type)) | IC50 (K-Ras G12D) | IC50 (Panc10.05-G12D; Panc10.05 K-Ras G12D) | IC50 (Panc1-G12D; Panc1 K-Ras G12D) | IC50 (HCT116-G31D; HCT116 K-Ras G13D) | IC50 ([1]; HCC827 K-Ras wild-type) | IC50 ([2]; U87-MG K-Ras wild-type) | Structure (SMILES) | IC50 [3, 4] | IC50 ([3]; Ishikawa K-Ras wild-type)
– | – | – | – | – | – | > 25 µM | > 25 µM | > 25 µM | > 25 µM | > 25 µM | Cc1nc(C)c(C(=O)Nc2nc(-c3ccc4c(c3)CCC(=O)N4Cc3cccc4ccccc34)cs2)o1 [Compound 79, 2,4-dimethyl-N-(4-(1-(naphthalen-1-ylmethyl)-2-oxo-1,2,3,4-tetrahydroquinolin-6-yl)thiazol-2-yl)oxazole-5-carboxamide] | – | > 25 µM
– | – | – | – | – | – | 2 µM | 6 µM | 5 µM | 8 µM | 4 µM | Cc1nc(-c2ccc3c(c2)OCC3)sc1C(=O)Nc1nc(-c2ccc3c(c2)CCC(=O)N3)cs1 [Compound 19, 2-(2,3-dihydrobenzofuran-6-yl)-4-methyl-N-(4-(2-oxo-1,2,3,4-tetrahydroquinolin-6-yl)thiazol-2-yl)thiazole-5-carboxamide] | – | 2 µM
– | – | – | – | – | – | 3 µM | 5 µM | 26 µM | > 25 µM | 11 µM | Cc1cc(C)c(C(=O)Nc2nc(-c3ccc4c(c3)CCC(=O)N4)cs2)cn1 [Compound 18] | – | 2 µM
– | – | – | – | – | – | > 25 µM | > 25 µM | > 25 µM | > 25 µM | > 25 µM | COc1cc(Cl)cc(CN2C(=O)CCc3cc(-c4csc(NC(=O)c5oc(C)nc5C)n4)ccc32)c1 [Compound 78] | – | > 25 µM
1.4 µM | 4 µM | 2 µM | 8 µM | 5 µM | 23.5 µM | – | – | – | – | – | Cn1nccc1-c1csc(C(=O)Nc2nc(-c3ccc4c(c3)CCC(=O)N4)cs2)c1 [Compound 151, 4-(1-methyl-1H-pyrazol-5-yl)-N-(4-(2-oxo-1,2,3,4-tetrahydroquinolin-6-yl)thiazol-2-yl)thiophene-2-carboxamide] | 1.3 µM | –
– | – | – | – | – | – | 17 µM | 17 µM | > 25 µM | > 25 µM | > 25 µM | Cc1nc(C)c(C(=O)Nc2nc(-c3ccc4c(c3)CCC(=O)N4Cc3cccc([N+](=O)[O-])c3)cs2)o1 [Compound 87, 2,4-dimethyl-N-(4-(1-(3-nitrobenzyl)-2-oxo-1,2,3,4-tetrahydroquinolin-6-yl)thiazol-2-yl)oxazole-5-carboxamide] | – | –

Continued, compound first:

Structure (SMILES) | IC50 (Panc10.05-G12D; Panc10.05 cells (K-Ras G12D)) | IC50 (Panc1-G12D; Panc1 cells (K-Ras G12D)) | IC50 (HCT116-G31D; HCT116 cells (K-Ras G13D)) | IC50 ([1]; HCC827 cells (K-Ras wild-type)) | IC50 ([2]; U87-MG cells (K-Ras wild-type)) | IC50 (K-Ras G12D) | IC50 (Panc10.05-G12D; Panc10.05 K-Ras G12D) | IC50 (Panc1-G12D; Panc1 K-Ras G12D) | IC50 (HCT116-G31D; HCT116 K-Ras G13D) | IC50 ([1]; HCC827 K-Ras wild-type) | IC50 ([2]; U87-MG K-Ras wild-type) | IC50 [3, 4] | IC50 ([3]; Ishikawa K-Ras wild-type)
O=C1CCc2cc(-c3csc(NC(=O)c4ccc(Cl)s4)n3)ccc2N1 [Compound 150, 5-chloro-N-(4-(2-oxo-1,2,3,4-tetrahydroquinolin-6-yl)thiazol-2-yl)thiophene-2-carboxamide] | 20 µM | 27 µM | 27 µM | 20 µM | 8 µM | > 25 µM | – | – | – | – | – | 5 µM | –
COc1cc(CN2C(=O)CCc3cc(-c4csc(NC(=O)c5oc(C)nc5C)n4)ccc32)cc(OC)c1 [Compound 77, N-(4-(1-(3,5-dimethoxybenzyl)-2-oxo-1,2,3,4-tetrahydroquinolin-6-yl)thiazol-2-yl)-2,4-dimethyloxazole-5-carboxamide] | – | – | – | – | – | – | > 25 µM | > 25 µM | > 25 µM | > 25 µM | > 25 µM | – | > 25 µM
Cc1nc(C)c(C(=O)Nc2nc(-c3ccc4c(c3)CCC(=O)N4Cc3ccc4c(c3)OCO4)cs2)o1 [Compound 74, N-(4-(1-(benzo[d][1,3]dioxol-5-ylmethyl)-2-oxo-1,2,3,4-tetrahydroquinolin-6-yl)thiazol-2-yl)-2,4-dimethyloxazole-5-carboxamide] | – | – | – | – | – | 22.4 µM | 2 µM | 11 µM | > 25 µM | > 25 µM | 6 µM | – | 16 µM
O=C1CCc2cc(-c3csc(NC(=O)c4cc(Br)cs4)n3)ccc2N1 [Compound 149, 4-bromo-N-(4-(2-oxo-1,2,3,4-tetrahydroquinolin-6-yl)thiazol-2-yl)thiophene-2-carboxamide] | 22 µM | > 25 µM | 28 µM | 22 µM | 11 µM | – | – | – | – | – | – | 7 µM | –
Cc1nc(C)c(C(=O)Nc2nc(-c3ccc4c(c3)CCC(=O)N4CC(O)CO)cs2)o1 (stereo not drawn) [Compound 89, N-(4-(1-(2,3-dihydroxypropyl)-2-oxo-1,2,3,4-tetrahydroquinolin-6-yl)thiazol-2-yl)-2,4-dimethyloxazole-5-carboxamide] | – | – | – | – | – | – | 12 µM | > 25 µM | 11 µM | 12 µM | 13 µM | – | –
Cc1nc(C)c(C(=O)Nc2nc(-c3ccc4c(c3)CCC(=O)N4Cc3cccc4cnccc34)cs2)o1 [Compound 83, N-(4-(1-(isoquinolin-5-ylmethyl)-2-oxo-1,2,3,4-tetrahydroquinolin-6-yl)thiazol-2-yl)-2,4-dimethyloxazole-5-carboxamide] | – | – | – | – | – | > 25 µM | 4 µM | 12 µM | 4 µM | 6 µM | 3 µM | – | 2 µM
Cc1nc(C)c(C(=O)Nc2nc(-c3ccc4c(c3)CCC(=O)N4CC3CCCNC3)cs2)o1 (stereo not drawn) [Compound 88] | – | – | – | – | – | – | 16 µM | > 25 µM | 17 µM | 15 µM | 19 µM | – | –
Cc1nc(C2CCCCC2)oc1C(=O)Nc1nc(-c2ccc3c(c2)CCC(=O)N3)cs1 [Compound 11, 2-cyclohexyl-4-methyl-N-(4-(2-oxo-1,2,3,4-tetrahydroquinolin-6-yl)thiazol-2-yl)oxazole-5-carboxamide] | – | – | – | – | – | – | 16 µM | > 25 µM | 16 µM | 21 µM | > 25 µM | – | –
Cc1nc(C)c(C(=O)Nc2nc(-c3ccc4c(c3)CCC(=O)N4Cc3ccc4ccccc4c3)cs2)o1 [Compound 80, 2,4-dimethyl-N-(4-(1-(naphthalen-2-ylmethyl)-2-oxo-1,2,3,4-tetrahydroquinolin-6-yl)thiazol-2-yl)oxazole-5-carboxamide] | – | – | – | – | – | – | 9 µM | > 25 µM | 9 µM | 7 µM | 4 µM | – | > 25 µM
